Experimental data reported in ChEMBL document CHEMBL1201862, “PubChem BioAssay data set” (2004).
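Growth conditions: 96-well plates. Treatment: test compound, 48 hours, 5 concentrations. Analysis: linear interpolation between bracketing concentrations; unreached endpoints set to highest concentration. GI50 is the concentration that inhibits growth by half.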 Activity calls are given as the source filed them. Cut-off read from the data, not from the text of the source: active = GI50 up to about 1.1 µM and inactive = higher.

Experiments:
Assay in all cases: inhibition of tumour cell growth, NCI panel, 48 h
HT-29 = tested on: HT-29
SK-MEL-2 = tested on: SK-MEL-2
HOP-62 = tested on: HOP-62
RXF 393 = tested on: RXF 393
NCI-H226 = tested on: NCI-H226
HL-60 = tested on: HL-60
HOP-92 = tested on: HOP-92
HCT-15 = tested on: HCT-15
SNB-75 = tested on: SNB-75
RPMI-8226 = tested on: RPMI-8226
SF-268 = tested on: SF-268
OVCAR-8 = tested on: OVCAR-8
UACC-257 = tested on: UACC-257
786-0 = tested on: 786-0
OVCAR-3 = tested on: OVCAR-3
LOX IMVI = tested on: LOX IMVI
NCI-H522 = tested on: NCI-H522

Compound | GI50 (HT-29) | GI50 (SK-MEL-2) | GI50 (HOP-62) | GI50 (RXF 393) | GI50 (NCI-H226) | GI50 (HL-60) | GI50 (HOP-92) | GI50 (HCT-15) | GI50 (SNB-75) | GI50 (RPMI-8226) | GI50 (SF-268) | GI50 (OVCAR-8) | GI50 (UACC-257) | GI50 (786-0) | GI50 (OVCAR-3) | GI50 (LOX IMVI) | GI50 (NCI-H522)
C/N=c1\ss/c(=N\C(=S)N(C)C)n1C | > 100 µM (inactive) | > 100 µM (inactive) | > 100 µM (inactive) | > 100 µM (inactive) | 27.5 µM (inactive) | > 100 µM (inactive) | > 100 µM (inactive) | > 100 µM | > 100 µM (inactive) | > 100 µM (inactive) | > 100 µM (inactive) | > 100 µM (inactive) | > 100 µM (inactive) | > 100 µM (inactive) | – | – | –
CCOC(=O)NC(=O)c1cn(C2OC(COC(=O)CCCCCCCCC(=O)OCC3OC(n4cc(C(=O)NC(=O)OCC)c(=O)[nH]c4=O)C4OC(C)(C)OC34)C3OC(C)(C)OC32)c(=O)[nH]c1=O (stereo not given) | 79.8 µM (inactive) | 52.1 µM (inactive) | > 100 µM (inactive) | > 100 µM (inactive) | 77.4 µM (inactive) | 63.5 µM (inactive) | 67.1 µM (inactive) | > 100 µM | 56.9 µM (inactive) | 44 µM (inactive) | 70.5 µM (inactive) | 78 µM (inactive) | > 100 µM (inactive) | > 100 µM (inactive) | 75.9 µM (inactive) | > 100 µM (inactive) | –
O=C(O)C1C2CCC(O2)C1C(=O)N1CCCCC1 (stereo not given) | 4.07 µM (inactive) | 8.17 µM (inactive) | 12.7 µM (inactive) | 2.2 µM (inactive) | 5.09 µM (inactive) | – | 2.38 µM (inactive) | 12.1 µM | 4.51 µM (inactive) | 3.26 µM (inactive) | 13.2 µM (inactive) | 4.61 µM (inactive) | 17.2 µM (inactive) | 4.16 µM (inactive) | 1.93 µM (inactive) | 10.2 µM (inactive) | 4.88 µM (inactive)
COC1(OC)CC2C(=O)N(Cc3ccccc3)C1CC2S(=O)(=O)c1ccccc1 (stereo not given) | > 100 µM (inactive) | > 100 µM (inactive) | > 100 µM (inactive) | > 100 µM (inactive) | > 100 µM (inactive) | > 100 µM (inactive) | – | > 100 µM | > 100 µM (inactive) | > 100 µM (inactive) | – | > 100 µM (inactive) | > 100 µM (inactive) | > 100 µM (inactive) | > 100 µM (inactive) | > 100 µM (inactive) | > 100 µM (inactive)
CCC12C=CCN3CCC4(c5cc(C6(C(=O)OC)CCCCCc7c6[nH]c6ccccc76)c(OC)cc5N(C)C4C(O)(C(=O)OC)C1OC(C)=O)C32 (stereo not given) | 0.562 µM (active) | 1.74 µM (inactive) | 3.72 µM (inactive) | 1.64 µM (inactive) | 2.64 µM (inactive) | 2.29 µM (inactive) | 2.26 µM (inactive) | 2.1 µM | 2.3 µM (inactive) | 2.47 µM (inactive) | 2.95 µM (inactive) | 3.06 µM (inactive) | – | 2.29 µM (inactive) | 3.83 µM (inactive) | 1.61 µM (inactive) | –
OCc1ccc(C2CC(c3ccco3)=NN2c2ccccc2)o1 (stereo not given) | > 100 µM (inactive) | > 100 µM (inactive) | > 100 µM (inactive) | > 100 µM (inactive) | > 100 µM (inactive) | > 100 µM (inactive) | – | > 100 µM | 20 µM (inactive) | > 100 µM (inactive) | > 100 µM (inactive) | > 100 µM (inactive) | – | > 100 µM (inactive) | > 100 µM (inactive) | > 100 µM (inactive) | > 100 µM (inactive)
Cc1csc(=S)n1OC(=O)NC1CCCCC1 | > 48.9 µM (inactive) | 68.4 µM (inactive) | > 100 µM (inactive) | > 100 µM (inactive) | > 100 µM (inactive) | 17.9 µM (inactive) | 7.89 µM (inactive) | > 100 µM | > 79.4 µM (inactive) | 23.6 µM (inactive) | > 87.1 µM (inactive) | > 100 µM (inactive) | > 60.1 µM (inactive) | 19 µM (inactive) | > 63.8 µM (inactive) | 65.3 µM (inactive) | 18.1 µM (inactive)
CCOC(=O)NC(=O)c1cn(CCOC(=O)CCCCCCCCC(=O)OCCn2cc(C(=O)NC(=O)OCC)c(=O)[nH]c2=O)c(=O)[nH]c1=O | > 100 µM (inactive) | > 100 µM (inactive) | > 100 µM (inactive) | > 100 µM (inactive) | > 100 µM (inactive) | > 100 µM (inactive) | > 100 µM (inactive) | > 100 µM | > 100 µM (inactive) | > 100 µM (inactive) | > 100 µM (inactive) | > 100 µM (inactive) | > 100 µM (inactive) | > 100 µM (inactive) | > 100 µM (inactive) | > 100 µM (inactive) | –
CCCCCCCCCC(=O)CC(=O)c1ccc(O)cc1O | 35.9 µM (inactive) | 18.6 µM (inactive) | 19.8 µM (inactive) | 28.4 µM (inactive) | 24.3 µM (inactive) | 19 µM (inactive) | 27.7 µM (inactive) | 30.2 µM | 33.6 µM (inactive) | 19.5 µM (inactive) | 40.8 µM (inactive) | 22.6 µM (inactive) | 28.8 µM (inactive) | 33.5 µM (inactive) | 22.6 µM (inactive) | 17.5 µM (inactive) | 18.6 µM (inactive)
Cc1cccc(Cl)c1NC(=O)c1cccc([N+](=O)[O-])c1O | 41.8 µM (inactive) | – | 20.1 µM (inactive) | 16.7 µM (inactive) | 22.2 µM (inactive) | > 10 µM (inactive) | 23 µM (inactive) | 35.6 µM | 33.9 µM (inactive) | 21.2 µM (inactive) | 31.8 µM (inactive) | 48.1 µM (inactive) | 28.4 µM (inactive) | 56 µM (inactive) | 27.5 µM (inactive) | 27.5 µM (inactive) | 20.4 µM (inactive)
Cc1cccc(NC(=O)C(=O)C(C(=O)c2ccc3ccccc3c2)C2OC(=O)c3ccccc32)c1C (stereo not given) | 28.1 µM (inactive) | 13.2 µM (inactive) | 10.7 µM (inactive) | 2.39 µM (inactive) | 2.39 µM (inactive) | 11.4 µM (inactive) | 11.8 µM (inactive) | 15.5 µM | 8.49 µM (inactive) | 6.98 µM (inactive) | 6.03 µM (inactive) | 10.3 µM (inactive) | 10.7 µM (inactive) | 6.15 µM (inactive) | 12.9 µM (inactive) | 13.2 µM (inactive) | 14.1 µM (inactive)
COc1cc(C(C#N)NNC(=O)c2ccccc2O)ccc1O (stereo not given) | 23.4 µM (inactive) | 2.48 µM (inactive) | 4.78 µM (inactive) | 0.349 µM (active) | 2.05 µM (inactive) | 2.45 µM (inactive) | 2.98 µM (inactive) | 4.06 µM | 0.356 µM (active) | 9.64 µM (inactive) | 0.368 µM (active) | 5.83 µM (inactive) | 6.35 µM (inactive) | 2.7 µM (inactive) | 3.44 µM (inactive) | 2.33 µM (inactive) | 3.14 µM (inactive)
CO[C@@]12CC(=O)/C(=C(O)\C=C\c3ccccc3)C(=O)[C@]1(OC)Cc1ccccc1O2 | 37.5 µM (inactive) | 36.8 µM (inactive) | 21.6 µM (inactive) | 18.8 µM (inactive) | 22.5 µM (inactive) | – | 48.6 µM (inactive) | 20 µM | 77.1 µM (inactive) | – | 27.7 µM (inactive) | 22.3 µM (inactive) | 30.1 µM (inactive) | 24.7 µM (inactive) | 26.2 µM (inactive) | 32.3 µM (inactive) | 29.9 µM (inactive)
CCC12C=CCN3CCC4(C(=C(C(=O)OC)C1)Nc1ccccc14)[C@H]32 (stereo not given in full) | 22.6 µM (inactive) | 19.1 µM (inactive) | – | 24.9 µM (inactive) | 31.8 µM (inactive) | 16 µM (inactive) | 23.4 µM (inactive) | 40.3 µM | 22 µM (inactive) | – | 19.5 µM (inactive) | – | 34.4 µM (inactive) | 23.4 µM (inactive) | 30.8 µM (inactive) | 20.8 µM (inactive) | 22.1 µM (inactive)
Cc1cc(C)n(-c2ccnc3cc(Cl)ccc23)n1 | > 100 µM (inactive) | > 100 µM (inactive) | > 100 µM (inactive) | > 100 µM (inactive) | > 100 µM (inactive) | > 100 µM (inactive) | > 100 µM (inactive) | > 100 µM | > 100 µM (inactive) | > 100 µM (inactive) | > 100 µM (inactive) | > 100 µM (inactive) | > 100 µM (inactive) | > 100 µM (inactive) | > 100 µM (inactive) | > 100 µM (inactive) | –
O=C(NCCNCCO)N/N=C/c1ccccc1 | > 100 µM (inactive) | > 100 µM (inactive) | – | > 100 µM (inactive) | > 100 µM (inactive) | 79.3 µM (inactive) | – | > 100 µM | > 100 µM (inactive) | – | > 100 µM (inactive) | > 100 µM (inactive) | > 100 µM (inactive) | > 100 µM (inactive) | > 100 µM (inactive) | > 100 µM (inactive) | > 100 µM (inactive)
CCOc1ccc(NC2=NC(=O)C(CC(=O)Nc3ccccc3[N+](=O)[O-])S2)cc1 (stereo not given) | > 100 µM (inactive) | > 100 µM (inactive) | – | > 100 µM (inactive) | > 100 µM (inactive) | > 100 µM (inactive) | > 100 µM (inactive) | > 100 µM | > 100 µM (inactive) | > 100 µM (inactive) | > 100 µM (inactive) | > 100 µM (inactive) | > 100 µM (inactive) | > 100 µM (inactive) | > 100 µM (inactive) | > 100 µM (inactive) | > 100 µM (inactive)
COC(=O)C1=C(C)N(NC(=O)c2cccc(Cl)c2)C(C)(O)C12CCOC2=O (stereo not given) | > 100 µM (inactive) | > 100 µM (inactive) | > 100 µM (inactive) | – | > 100 µM (inactive) | – | – | > 100 µM | > 100 µM (inactive) | > 100 µM (inactive) | > 100 µM (inactive) | > 100 µM (inactive) | > 100 µM (inactive) | > 100 µM (inactive) | > 100 µM (inactive) | > 100 µM (inactive) | > 100 µM (inactive)
